{"source": "paper PMC8385015", "about": "“Tumour-on-chip microfluidic platform for assessment of drug pharmacokinetics and treatment response” (Communications Biology, 2021)", "key": {"[1]": {"experiment": "In vivo PK profile determination in mouse plasma (LC-MS/MS, population-based PK model)", "conditions": "for In vivo drug free concentrations: SN38 after irinotecan 50 mg/kg", "experimental": "The samples were collected at 5, 15, 40 min, and 1, 2, 4, 6, 8 and 24 h.\nWhole blood was mixed 1:5 with PBS and centrifuged at 1500×g for 3 min at 4 °C, and the plasma was extracted and frozen at –80 °C.\nUsing this PK model, a time course of free plasma concentrations of both drugs was simulated (Table 1).\nAcidified acetonitrile ([…]) was added with the internal standard, followed by centrifugation at 3000 rpm for 10 min. Supernatant ([…]) was then removed to a clean plate and dried under nitrogen. […]\nSupplementary Method 8. Pharmacokinetic models parameters used for simulations\n[…] PK model and PK parameters used for simulations"}, "SW620 spheroids": {"system": "SW620 spheroids", "experiment": "SW620 spheroid viability (CellTiterGlo), static plate format", "type": "cell-based", "conditions": "6 days", "experimental": "In microfluidic Ibidi chip, tumour spheroids were exposed to eight different concentrations in a gradient fashion mimicking the in vivo pharmacokinetic profile and treatment schedule for both drugs. c Spheroids were imaged in situ (plate/chip) at the end of the treatment and their volumes calculated from average radius deducted from min/max Feret. d Spheroid viability was measured at the end of the treatment by CellTiterGlo assay (d). N = 6 per condition from two independent experiments. Box-plots show median (centre line); box limits are 25th to 75th percentile; whiskers represent min and max values. Statistical analysis was performed using 1-way ANOVA.\nFrom the same experimental setup, we explored SW620 spheroid viability at 6 days for static and microfluidic setup (Fig. 2d).\nCompounds were dispensed in each well using an automated HP D300 digital dispenser (Tecan, UK).\nSpheroid viability assessment used a metabolic method (CellTiterGlo 3D, G9681, Promega) by measuring luminescence units expressed by individually recovered spheroids. […] CellTiterGlo vial was allowed to thaw (1 h, room temperature) and 25 µL reagent were added to each spheroid well. […] Luminescence levels were measured using a SpectraMax i3X (Molecular Devices, USA)."}, "Ki67": {"system": "Ki67", "experiment": "Ki67 immunofluorescence in SW620 spheroids, microfluidic chip", "type": "cell-based", "text": "SN38 is a TOP1 inhibitor that that prevents relegation of the DNA strand by binding to TOP1–DNA complex and causes DNA double strand breaks (DSBs). Those DNA DSB lesions trigger activation of the ATM kinase for effective repair. Inhibition of ATM and consequent accumulation of unrepaired breaks leading to increased cell death provides the rationale for developing this combination for cancer treatment. […] Here, we tested whether different schedules lead to different activation of pharmacodynamic markers that are associated with DNA DSB damage, apoptosis and cell proliferation. The γ-H2AX associated foci accumulate in cells exposed to DBS inducing agents[18],[19]. These foci can be detected by immunostaining to determine their, size and morphology. However, spheroid imaging using a 20x objective on a CV7000 confocal microscope cannot accurately explore foci morphology, so we introduced customised ImageJ macros (described in “Methods” section, Supplementary Fig. 2 and Supplementary Method 1) to quantitate positive cells within a spheroid. The same method was applied to quantitate CC3-positive (apoptotic) cells, while normalisation by spheroid area was not required for Ki67, as this biomarker is present in all proliferating cells. […]\nTotal Hoechst area represents a parameter used for normalization within biomarker quantitation. […]"}}, "note": "Where “and” joins values, the source holds several entries; their conditions need not be identical. Identical values can stand only once.", "data": [{"compound": "CCc1c2c(nc3ccc(O)cc13)-c1cc3c(c(=O)n1C2)COC(=O)[C@]3(O)CC", "note": "[SN38]", "values": [{"measurement": "In vivo drug free concentrations", "setting": "[1]; mouse plasma, time 1 h", "value": 5.5, "unit": "nM"}, {"measurement": "In vivo drug free concentrations", "setting": "[1]; mouse plasma, time 2 h", "value": 4.7, "unit": "nM"}, {"measurement": "In vivo drug free concentrations", "setting": "[1]; mouse plasma, time 3 h", "value": 4.4, "unit": "nM"}, {"measurement": "In vivo drug free concentrations", "setting": "[1]; mouse plasma, time 4 h", "value": 4.1, "unit": "nM"}, {"measurement": "In vivo drug free concentrations", "setting": "[1]; mouse plasma, time 5 h", "value": 3.6, "unit": "nM"}, {"measurement": "In vivo drug free concentrations", "setting": "[1]; mouse plasma, time 6 h", "value": 3.1, "unit": "nM"}, {"measurement": "In vivo drug free concentrations", "setting": "[1]; mouse plasma, time 7 h", "value": 2.8, "unit": "nM"}, {"measurement": "In vivo drug free concentrations", "setting": "[1]; mouse plasma, time 8 h", "value": 2.4, "unit": "nM"}, {"measurement": "In vivo drug free concentrations", "setting": "[1]; mouse plasma, time 9 h", "value": 2.1, "unit": "nM"}, {"measurement": "In vivo drug free concentrations", "setting": "[1]; mouse plasma, time 10 h", "value": 1.9, "unit": "nM"}, {"measurement": "In vivo drug free concentrations", "setting": "[1]; mouse plasma, time 11 h", "value": 1.7, "unit": "nM"}, {"measurement": "In vivo drug free concentrations", "setting": "[1]; mouse plasma, time 12 h", "value": 1.6, "unit": "nM"}, {"measurement": "In vivo drug free concentrations", "setting": "[1]; mouse plasma, time 13 h", "value": 1.5, "unit": "nM"}, {"measurement": "In vivo drug free concentrations", "setting": "[1]; mouse plasma, time 14 h", "value": 1.4, "unit": "nM"}, {"measurement": "In vivo drug free concentrations", "setting": "[1]; mouse plasma, time 15 h", "value": 1.2, "unit": "nM"}, {"measurement": "In vivo drug free concentrations", "setting": "[1]; mouse plasma, time 16 h", "value": 1.1, "unit": "nM"}, {"measurement": "In vivo drug free concentrations", "setting": "[1]; mouse plasma, time 17 h", "value": 1.1, "unit": "nM"}, {"measurement": "In vivo drug free concentrations", "setting": "[1]; mouse plasma, time 18 h", "value": 0.9, "unit": "nM"}, {"measurement": "In vivo drug free concentrations", "setting": "[1]; mouse plasma, time 19 h", "value": 0.9, "unit": "nM"}, {"measurement": "In vivo drug free concentrations", "setting": "[1]; mouse plasma, time 20 h", "value": 0.8, "unit": "nM"}, {"measurement": "In vivo drug free concentrations", "setting": "[1]; mouse plasma, time 21 h", "value": 0.7, "unit": "nM"}, {"measurement": "In vivo drug free concentrations", "setting": "[1]; mouse plasma, time 22 h", "value": 0.7, "unit": "nM"}, {"measurement": "In vivo drug free concentrations", "setting": "[1]; mouse plasma, time 23 h", "value": 0.6, "unit": "nM"}, {"measurement": "In vivo drug free concentrations", "setting": "[1]; mouse plasma, time 24 h", "value": 0.6, "unit": "nM"}, {"measurement": "in vivo average measured concentration", "setting": "[1]; mouse plasma, between 2-4h from treatment onset", "value": 4.36, "unit": "nM"}, {"measurement": "Cmax", "setting": "[1]; read-out: maximum mouse plasma concentration (Cmax), 50 mg/kg irinotecan (SN38), 10 mg/kg AZD0156", "value": 5.5, "unit": "nM"}, {"measurement": "spheroid viability", "setting": "SW620 spheroids; Static plate format, CellTiterGlo, replicates (Fig 2d raw data), unit not given", "value": "36.02 and 31.7 and 39.52"}, {"measurement": "reduction in spheroid viability", "setting": "SW620 spheroids; static, continuous exposure", "value": "~ 60%"}, {"measurement": "Ki67 positive area", "setting": "Ki67; Mono SN38, day 7, single spheroids", "value": "3.88E+07 and 4.54E+07 and 3.33E+07 and 4.06E+07 and 4.69E+07"}, {"measurement": "decrease in proliferation (Ki67) compared to control", "setting": "Ki67; SN38 monotherapy, day 7", "value": "about 20%"}]}]}
